# Source: ChEMBL document CHEMBL1137304, “Fluorinated conformationally restricted gamma-aminobutyric acid aminotransferase inhibitors” (J Med Chem, 2006)
# Tests used:
# [1] = molecular target: 4-aminobutyrate aminotransferase, mitochondrial (Sus scrofa, UniProt P80147); experiment: Inhibition of pig brain GABA-AT in presence of beta-mercaptoethanol
# [2] = molecular target: 4-aminobutyrate aminotransferase, mitochondrial (Sus scrofa) (UniProt P80147); experiment: Inhibition of pig brain GABA-AT in presence of beta-mercaptoethanol at 0.2 M; details: TDE = time-dependent effect
# [3] = molecular target: 4-aminobutyrate aminotransferase, mitochondrial (Sus scrofa) (UniProt P80147); experiment: Residual activity at pig brain GABA-AT assessed by exhaustive dialysis at 0.2 M after 22 hrs relative to control
# Chain of 4-aminobutyrate aminotransferase, mitochondrial (Sus scrofa) (P80147 whole entry): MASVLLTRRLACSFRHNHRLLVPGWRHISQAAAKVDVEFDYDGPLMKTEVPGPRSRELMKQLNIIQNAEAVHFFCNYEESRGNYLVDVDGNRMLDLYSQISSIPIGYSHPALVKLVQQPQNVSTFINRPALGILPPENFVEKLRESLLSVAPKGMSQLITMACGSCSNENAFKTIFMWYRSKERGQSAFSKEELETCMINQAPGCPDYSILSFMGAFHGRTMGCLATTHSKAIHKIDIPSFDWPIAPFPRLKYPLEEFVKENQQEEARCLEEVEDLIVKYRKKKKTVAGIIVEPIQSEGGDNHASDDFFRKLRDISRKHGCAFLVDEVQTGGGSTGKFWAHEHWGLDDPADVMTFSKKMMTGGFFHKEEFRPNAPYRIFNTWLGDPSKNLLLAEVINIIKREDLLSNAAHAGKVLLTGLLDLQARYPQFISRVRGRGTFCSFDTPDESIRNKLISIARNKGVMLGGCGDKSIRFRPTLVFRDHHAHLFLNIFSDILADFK
# Chain of 4-aminobutyrate aminotransferase, mitochondrial (P80147 whole entry): as above
Compound,Ki [1] [mM],Activity [2],Activity [3] [%]
N[C@H]1C[C@@H](C(=O)O)C=C1F,1.3,–,–
N[C@H]1C[C@@H](C(=O)O)C=C1C(F)(F)F,4.11,tde,48
N[C@H]1C[C@@H](C(=O)O)C=C1C(F)(F)C(F)(F)F,2.8,–,–
N[C@H]1C[C@@H](C(=O)O)CC1=C(C(F)(F)F)C(F)(F)F,4.2,–,–

# Further lines, results first:
Ki [1] [mM],Activity [2],Activity [3] [%],Compound
39.2,tde,13,N[C@H]1C[C@@H](C(=O)O)CC1=CC(F)(F)F
7.74,tde,–,N[C@H]1C[C@@H](C(=O)O)C/C1=C/C(F)(F)F
